According to PMC8151276, “An Integrated Approach toward NanoBRET Tracers for Analysis of GPCR Ligand Engagement” (Molecules, 2021):

How the values were obtained:
TSHR = molecular target: T1, TSHR (Homo sapiens, UniProt P16473); assay: NanoBRET screen HiBiT-TSHR in HEK293; assay type: binding
T1 construct: purchased Promega (in-house HiBiT-GPCR construct library, NanoBRET)
Method: (§1) Each tracer candidate was screened across the entire library of HiBiT-GPCR constructs using NanoBRET as the detection modality. As depicted in Figure 4A, the specificity of interactions was evaluated through decrease in BRET due to competitive displacement of a bound tracer by excess parental compound. Each tracer was analyzed for binding to each HiBiT-GPCR fusion in the absence and in the presence of competing parental compound. Briefly, HEK293 cells were transfected with HiBiT-GPCR constructs diluted into promoterless DNA to reduce expression and maximize translocation to the cell surface. Each tracer candidate was then screened at concentrations of 1 μM and 0.1 μM across cells expressing these fusions. Cells were treated for 1.5 h with tracer either alone or in the presence of 20 μM competing parental compound (i.e., control). BRET was measured upon addition of purified LgBiT and subsequent complementation with HiBiT genetically fused to a GPCR. The specificity of interactions was assessed through a decrease in BRET signal due to competitive displacement of the bound tracer. To further gauge the robustness of these interactions, the fold response over the control (i.e., BRETtracer/BRETcontrol) was calculated. We chose a 1.5-fold response, which translates to ≥7-fold signal over noise as the minimal threshold required to score an interaction as positive.
(§2) HiBiT-GPCR DNA constructs were diluted in 10 mM Tris pH 8 to a final concentration of 0.01 μg/μL, arrayed in 96-well plates and stored at −20 °C. For transfection, HEK293 cells were suspended in Opti-MEM (without phenol red) supplemented with 2% fetal bovine serum (Seradigm) and 100 units/mL penicillin–streptomycin (Gibco) at a final concentration of 220,000 cells/mL and dispensed into white 96-well plates at 90 μL/well. Subsequent transfections and screens were carried using an Agilent Bravo Automated Liquid Handling Platform. First, the 96-well HiBiT DNA arrays were diluted 25-fold in Opti-MEM (without serum or phenol red) to a final concentration of 0.0004 μg/μL and 20 μL of the diluted DNAs were transferred into new 96-well plates. Next, promoterless carrier DNA (1 μg/μL) was diluted 25-fold (0.04 μg/μL) and then dispensed into the diluted arrays at 20 μL/well. Following brief mixing, Viafect transfection reagent (Promega) diluted 16-fold into Opti-MEM was dispensed into the plates at 40 μL/well. After mixing by pipetting, plates were incubated for 10 min on the pipetting station deck. The DNA-transfection reagent complexes were then added to plates containing cells. To facilitate the screen, 10 μL of DNA-transfection reagent complexes were added in duplicates to the top 4 and bottom 4 rows, resulting in two identical 48-well arrays per plate. Plates with transfected cells were incubated for 18–20 h at 37 °C/5% CO2. A screen of each tracer across the entire library using two different concentrations requires duplicate plates of transfected cells. Depending on the number of tracers being screened, transfections can be scaled up using the same ratios. The next day, for each tracer, four 20× screening solutions in tracer dilution buffer (Promega) were prepared: two duplicates at final concentration of 20 μM and two duplicates at a final concentration of 2 μM. […] The four resulting solutions were diluted 4-fold in Opti-MEM without serum or phenol red to generate 5× solutions (5 µM and 0.5 µM tracer +/− 100 μM competing compound). To screen the library, a BioTek MultiFlo FX liquid dispenser was used to dispense 22.5 µL of tracer solution to the top 4 rows and 22.5 µL tracer + competing compound solution to the 4 bottom rows. Plates were briefly mixed on an orbital shaker and incubated for 1.5 h at room temperature. […] Plates were briefly mixed on an orbital shaker and incubated for 15 min to allow complementation.

NPSR1 = molecular target: T2, NPSR1 (Homo sapiens, UniProt Q6W5P4); assay: NanoBRET screen HiBiT-NPSR1 in HEK293; assay type: binding
T2 construct: purchased Promega (in-house HiBiT-GPCR construct library, NanoBRET)
T2 sequence (Q6W5P4 1-371): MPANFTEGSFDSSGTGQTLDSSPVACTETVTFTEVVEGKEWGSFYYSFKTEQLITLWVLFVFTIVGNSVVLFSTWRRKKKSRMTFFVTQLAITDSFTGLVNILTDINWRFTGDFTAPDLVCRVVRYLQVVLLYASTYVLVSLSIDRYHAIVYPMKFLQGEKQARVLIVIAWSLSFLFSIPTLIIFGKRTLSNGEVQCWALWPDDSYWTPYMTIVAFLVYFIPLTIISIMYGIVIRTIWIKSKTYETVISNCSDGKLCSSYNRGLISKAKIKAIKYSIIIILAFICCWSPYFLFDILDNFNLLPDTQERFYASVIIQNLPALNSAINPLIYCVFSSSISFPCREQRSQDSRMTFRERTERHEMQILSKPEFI
Method: as §1, §2

T1 sequence (P16473 21-764): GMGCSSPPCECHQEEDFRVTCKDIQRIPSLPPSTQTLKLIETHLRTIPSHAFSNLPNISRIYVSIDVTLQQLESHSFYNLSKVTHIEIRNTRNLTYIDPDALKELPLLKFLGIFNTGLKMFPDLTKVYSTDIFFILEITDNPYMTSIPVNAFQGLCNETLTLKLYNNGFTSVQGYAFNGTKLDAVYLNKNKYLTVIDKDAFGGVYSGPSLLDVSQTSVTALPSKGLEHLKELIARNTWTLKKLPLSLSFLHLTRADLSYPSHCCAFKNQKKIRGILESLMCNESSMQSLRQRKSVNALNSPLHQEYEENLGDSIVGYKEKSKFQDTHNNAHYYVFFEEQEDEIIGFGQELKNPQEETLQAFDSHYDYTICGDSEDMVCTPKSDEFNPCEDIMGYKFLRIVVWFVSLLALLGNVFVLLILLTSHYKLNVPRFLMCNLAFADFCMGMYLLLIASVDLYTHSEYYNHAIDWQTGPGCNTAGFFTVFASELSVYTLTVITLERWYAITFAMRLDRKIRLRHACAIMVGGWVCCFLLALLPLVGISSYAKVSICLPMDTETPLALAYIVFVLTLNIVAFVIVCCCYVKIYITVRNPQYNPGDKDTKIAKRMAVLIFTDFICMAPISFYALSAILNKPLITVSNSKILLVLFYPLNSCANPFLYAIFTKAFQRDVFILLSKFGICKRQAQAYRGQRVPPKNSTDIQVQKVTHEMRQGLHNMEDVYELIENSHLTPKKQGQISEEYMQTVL

| SMILES | NanoBRET Fold Response (TSHR; TSHR, tracer 0.1μM) | NanoBRET Fold Response (TSHR; TSHR, tracer 1μM) | NanoBRET Fold Response (NPSR1; NPSR1, tracer 0.1μM) | NanoBRET Fold Response (NPSR1; NPSR1, tracer 1μM) | further results |
| --- | --- | --- | --- | --- | --- |
| O=C(CCc1ccc2n1[B-](F)(F)[N+]1=C(c3ccc[nH]3)C=CC1=C2)NCc1ccc(C(=O)NCCOCCC(=O)N[C@@H]2CC[C@@]3(O)[C@H]4Cc5ccc(O)c6c5[C@@]3(CCN4CC3CC3)[C@H]2O6)cc1 [Naltrexone-3-NB590] | 1.36 | 1.06 | 1.12 | 0.92 | – |
| CCCn1c(=O)c2[nH]c(-c3ccc(OCC(=O)NCCNC(=O)CCOCCNC(=O)c4ccc(CNC(=O)CCc5ccc6n5[B-](F)(F)[N+]5=C(c7ccc[nH]7)C=CC5=C6)cc4)cc3)nc2n(CCC)c1=O [XAC-3-NB590] | 1.08 | 1.03 | 0.90 | 0.92 | – |
| CC(C)N(CC[C@H](c1ccccc1)c1cc(CCNC(=O)c2ccc(CNC(=O)CCc3ccc4n3[B-](F)(F)[N+]3=C(c5ccc[nH]5)C=CC3=C4)cc2)ccc1O)C(C)C [Tolterodine-BZ-NB590] | 0.96 | 1.08 | 1.12 | 0.99 | – |
| COc1ccc2[nH]c(-c3ccc(CNC(=O)CCOCCOCCOCCOCCNC(=O)CCc4ccc5n4[B-](F)(F)[N+]4=C(c6ccc[nH]6)C=CC4=C5)cc3)c(CCNC(C)=O)c2n1 [AzomelatoninICO9-2-NB590] | – | – | – | – | NanoBRET Fold Response (TSHR; 0.1μM tracer): 1.03; NanoBRET Fold Response (TSHR; 1μM tracer): 0.95; NanoBRET Fold Response (NPSR1; 0.1μM tracer): 0.98; NanoBRET Fold Response (NPSR1; 1μM tracer): 0.96 |
| CN1CCN(C2=Nc3cc(Cl)ccc3N(CC(=O)NCCOCCOCCOCCOCCNC(=O)CCc3ccc4n3[B-](F)(F)[N+]3=C(c5ccc[nH]5)C=CC3=C4)c3ccccc32)CC1 [Clozapine-c-2-NB590] | – | – | – | – | NanoBRET Fold Response (TSHR; TSHR, 0.1μM tracer): 0.99; NanoBRET Fold Response (TSHR; TSHR, 1μM tracer): 1.04; NanoBRET Fold Response (NPSR1; NPSR1, 0.1μM tracer): 1.02; NanoBRET Fold Response (NPSR1; NPSR1, 1μM tracer): 1.02 |
| COc1ccccc1N1CCN(CCCCN2C(=O)c3ccc(CNC(=O)CCOCCNC(=O)c4ccc(CNC(=O)CCc5ccc6n5[B-](F)(F)[N+]5=C(c7ccc[nH]7)C=CC5=C6)cc4)cc3C2=O)CC1 [NAN-190-3-NB590] | 1.01 | 1.04 | 1.10 | 1.17 | – |
| Cc1nc2n(c(=O)c1CCN1CCC(c3noc4cc(F)ccc34)CC1)CCCC2OC(=O)NCCOCCOCCOCCOCCNC(=O)CCc1ccc2n1[B-](F)(F)[N+]1=C(c3ccc[nH]3)C=CC1=C2 (centres unmarked) [Risperidone-2-NB590] | 1.00 | 0.96 | 1.00 | 0.90 | – |
| O=C(CCOCCOCCOCCOCCNC(=O)CCc1ccc2n1[B-](F)(F)[N+]1=C(c3ccc[nH]3)C=CC1=C2)NCCCN1CCN(C2=Nc3ccccc3Oc3ccc(Cl)cc32)CC1 [Loxapine-a-2-NB590] | 0.97 | 1.07 | 0.98 | 1.04 | – |
| COc1ccccc1N1CCN(CCCCN2C(=O)c3ccc(CNC(=O)CCOCCOCCOCCOCCNC(=O)CCc4ccc5n4[B-](F)(F)[N+]4=C(c6ccc[nH]6)C=CC4=C5)cc3C2=O)CC1 [NAN-190-2-NB590] | 0.96 | 1.06 | 0.90 | 0.93 | – |
| CC(C)N(CC[C@H](c1ccccc1)c1cc(CCNC(=O)CCOCCOCCOCCOCCNC(=O)CCc2ccc3n2[B-](F)(F)[N+]2=C(c4ccc[nH]4)C=CC2=C3)ccc1O)C(C)C [Tolterodine-2-NB590] | 0.69 | 1.20 | – | 1.34 | – |
| N#CN=C(NCCCOc1cccc(CN2CCCCC2)c1)NCCNC(=O)CCOCCOCCOCCOCCNC(=O)CCc1ccc2n1[B-](F)(F)[N+]1=C(c3ccc[nH]3)C=CC1=C2 [Aminopotentidine-2-NB590] | 1.07 | 1.01 | 0.99 | 1.01 | – |
| CCOC(=O)c1cc(C#N)c(N2CCC(C(=O)NS(=O)(=O)Cc3ccccc3/C=C/C(=O)NCCNC(=O)CCc3ccc4n3[B-](F)(F)[N+]3=C(c5ccc[nH]5)C=CC3=C4)CC2)nc1C [AZD1283-1-NB590] | – | – | – | – | NanoBRET Fold Response (TSHR; TSHR, 0.1μM): 1.00; NanoBRET Fold Response (TSHR; TSHR, 1μM): 0.96; NanoBRET Fold Response (NPSR1; NPSR1, 0.1μM): 1.02; NanoBRET Fold Response (NPSR1; NPSR1, 1μM): 1.06 |
| CN(C)CCC=C1c2ccccc2CCc2ccc(C(=O)NCCNC(=O)CCOCCOCCOCCOCCNC(=O)CCc3ccc4n3[B-](F)(F)[N+]3=C(c5ccc[nH]5)C=CC3=C4)cc21 [Amitriptyline-b-2-NB590] | – | – | – | – | NanoBRET Fold Response (NPSR1; tracer at 0.1μM, listed as amitriptyline-b-2-NB590): 0.95; NanoBRET Fold Response (NPSR1; tracer at 1μM, listed as amitriptyline-b-2-NB590): 1.15 |
| CN(C)CCC=C1c2ccccc2CCc2ccc(C(=O)NCCNC(=O)CCOCCOCCOCCOCCNC(=O)CCc3ccc4n3[B-](F)(F)[N+]3=C(c5ccc[nH]5)C=CC3=C4)cc21 [Amitriptyline-a-2-NB590] | – | – | – | – | NanoBRET Fold Response (NPSR1; tracer at 0.1μM): 1.01; NanoBRET Fold Response (NPSR1; tracer at 1μM): 0.99 |
| O=C(CCc1ccc2n1[B-](F)(F)[N+]1=C(c3ccc[nH]3)C=CC1=C2)NCCOCCOCCNC(=O)OCCOCCN1CCN(C2=Nc3ccccc3Sc3ccccc32)CC1 [Quetiapine-a-2-NB590] | 0.96 | 0.92 | 0.87 | 0.90 | – |
| Cc1cc2c(s1)Nc1ccccc1N=C2N1CCN(CCCNC(=O)CCOCCOCCOCCOCCNC(=O)CCc2ccc3n2[B-](F)(F)[N+]2=C(c4ccc[nH]4)C=CC2=C3)CC1 [Olanzapine-a-2-NB590] | – | – | 1.01 | 1.17 | – |
| CN1CCN(C2=Nc3cc(Cl)ccc3Nc3ccc(CNC(=O)CCOCCOCCOCCOCCNC(=O)CCc4ccc5n4[B-](F)(F)[N+]4=C(c6ccc[nH]6)C=CC4=C5)cc32)CC1 [Clozapine-b-2-NB590] | – | – | – | – | NanoBRET Fold Response (TSHR; TSHR, 0.1μM tracer): 1.04; NanoBRET Fold Response (TSHR; TSHR, 1μM tracer): 0.99; NanoBRET Fold Response (NPSR1; NPSR1, 0.1μM tracer): 1.05; NanoBRET Fold Response (NPSR1; NPSR1, 1μM tracer): 0.98 |
| COc1ccc2c(n1)c(CCNC(C)=O)cn2CCNC(=O)CCc1ccc2n1[B-](F)(F)[N+]1=C(c3ccc[nH]3)C=CC1=C2 [Azamelatonin-1-NB590] | – | – | – | – | NanoBRET Fold Response (TSHR; 0.1μM tracer): 1.25; NanoBRET Fold Response (TSHR; 1μM tracer): 0.91; NanoBRET Fold Response (NPSR1; 0.1μM tracer): 0.96; NanoBRET Fold Response (NPSR1; 1μM tracer): 0.84 |
| O=C(CCc1ccc2n1[B-](F)(F)[N+]1=C(c3ccc[nH]3)C=CC1=C2)NCc1ccc(C(=O)NCCOCCOCCNCC(O)COc2cccc3ccccc23)cc1 (centres unmarked) [Propranolol-3-NB590] | – | – | – | – | NanoBRET Fold Response (NPSR1; NPSR1, 0.1μM): 1.00; NanoBRET Fold Response (NPSR1; NPSR1, 1μM): 0.98 |
| O=C(CCOCCOCCOCCOCCNC(=O)CCc1ccc2n1[B-](F)(F)[N+]1=C(c3ccc[nH]3)C=CC1=C2)NCCCN1CCN(C2=Nc3cc(Cl)ccc3Nc3ccccc32)CC1 [Clozapine-a-2-NB590] | – | – | – | – | NanoBRET Fold Response (TSHR; TSHR, 0.1μM tracer): 0.92; NanoBRET Fold Response (TSHR; TSHR, 1μM tracer): 1.05; NanoBRET Fold Response (NPSR1; NPSR1, 0.1μM tracer): 0.93; NanoBRET Fold Response (NPSR1; NPSR1, 1μM tracer): 1.15 |
